2 compounds from patent US20260191965A1 (priority 2022, published 2026) can be followed below.

For test [1], the system named is clinical isolates of Mycobacterium tuberculosis. The test can be described thus: microbe, parasite or virus in culture. Format: cell-based.
Test [2] concerns Mycobacterium tuberculosis H37Rv (ATCC 27294). Format: cell-based.

Each structure is given as a SMILES string.

Consider `CO[C@H]1/C=C/O[C@@]2(C)Oc3c(C)c(O)c4c(c3C2=O)C2=NC3(CCN(CCn5c([N+](=O)[O-])cnc5C)CC3)NC2=C(NC(=O)/C(C)=C\C=C\[C@H](C)[C@H](O)[C@@H](C)[C@@H](O)[C@@H](C)[C@H](OC(C)=O)[C@@H]1C)C4=O`, for which, in test [1], the “MIC range against tuberculosis strains resistant to rifampicin and metronidazole” value was in the range of 0.5 to 2 µg/mL.

As to `Cc1ncc([N+](=O)[O-])n1CCO` [Metronidazole, metronidazole], in test [2], the “effect on growth of rifamycin-sensitive and rifamycin-resistant tuberculosis strains under anaerobic conditions” value is listed as “a certain inhibitory effect”.
